Data set [1] concerns human RNase H2. Description: Antisense inhibition of human RNase H2 expression, Northern blot. In kind it is cell-based. More on the design: % of control / % inhibition: concentration or dose not given beside the values. The note with it: for % inhibition / % of control: RNase H2 expression, Northern blot; for inhibition of human RNase H2 expression: summary of Table 3; for reduction of expression: dose response, A549 cells. How it is done: Total RNA was isolated from different human cell lines (ATCC, Rockville, Md.) using the guanidine isothiocyanate method (21). Ten μg of total RNA was separated on a 1.2% agarose/formaldehyde gel and transferred to Hybond-N+ (Amersham, Arlington Heights, Ill.) followed by fixing using UV crosslinker (Strategene, La Jolla, Calif.). The premade multiple tissue Northern Blot membranes were also purchased from Clontech (Palo Alto, Calif.). To detect RNase H2 mRNA, hybridization was performed by using ^32P-labeled human RNase H II cDNA in Quik-Hyb buffer (Strategene, La Jolla, Calif.) at 68 EC for 2 hours. After hybridization, membranes were washed in a final stringency of 0.1×SSC/0.1% SDS at 60 EC for 30 minutes and subjected to auto-radiography.
A series of antisense oligonucleotides were targeted to the human RNase H2 polynucleotide sequence (SEQ ID NO: 11). These compounds were all 2′-O-methoxyethyl “gapmers” with an 8-nucleotide deoxy gap and a phosphorothioate backbone. Cytosine residues are 5-methyl cytosines. The 2′-O-methoxyethyl (2′MOE) nucleotides are shown in bold.
The oligonucleotides shown in Table 2 were tested by Northern blot analysis for their ability to inhibit expression of human RNase H2. Results are expressed in Table 3.

In data set [2] the test system is human RNase H2. Description: Screen of antisense compounds (gapped oligonucleotides, siRNA) in cells against human RNase H2. In kind it is cell-based. Further details: concentration or dose not given beside the values. The note with it: percent inhibition of RNase H enzyme levels; target H2. The procedure:
Oligonucleotides were identified by screening in cells (Crooke, S. T., 2003, in Burger's Medicinal Chemistry, 6th ed., pp 115-166; Vickers et al., 2003, J. Biol. Chem. 278, 7108-7118).
For this experiment oligoribonucleotides were purchased from Dharmacon Research, Inc. (Boulder Colo.). siRNA duplexes were formed in the solution containing 20 μM each oligoribonucleotide (sense strand shown and antisense strand complement—generally with a one base overhang at each end), 100 mM potassium acetate, 30 mM HEPES-KOH pH 7.4, 2 mM magnesium acetates. Reactions were heated for 1 minute at 90° C. and incubated for 1 hour at 37° C. The control gapped antisense oligonucleotide, is ISIS 29848, […] (SEQ ID NO: 104), where N is a mixture of A, G, C and T. Bold residues are 2′-MOE residues. The siRNA controls are either the single strand sense RNA strand or other RNA duplexes that are not complementary to the target. For transfection of cells, cells were incubated with a mixture of 3 μg/ml lipofectin (Invitrogen, Carlsbad Calif.) per 1-200 nM oligonucleotide or siRNA in OptiMEM medium (Invitrogen). After 4 hours the transfection mixture was aspirated from the cells and replaced with fresh medium containing 10% fetal bovine serum and the cells were incubated at 37° C. in 5% CO2 until harvest or second transfection.

Strand notation (5' to 3'): a small letter for the sugar, then the base; units joined by * are phosphorothioate-linked, units joined directly phosphodiester-linked; [ ] holds rarer units or linkages, { } end groups; capitals alone tell only the bases. e = 2'-O-(2-methoxyethyl) (MOE); [5mC] = 5-methylcytosine; d = 2'-deoxy (DNA)

The term % inhibition denotes the percentage by which the read-out fell short of the control.

In the case of “ACTCCAGGCCGCGTTCCAGG (antisense eA*e[5mC]*eT*e[5mC]*e[5mC]*eA*dG*dG*d[5mC]*d[5mC]*dG*d[5mC]*dG*dT*eT*e[5mC]*e[5mC]*eA*eG*eG) [ISIS 21959, 2′-O-methoxyethyl gapmer, 8-nucleotide deoxy gap, phosphorothioate backbone, targeted to human RNase H2]”, in the data set on human RNase H2 [1], the “% inhibition” value was found to be 82%, the “% of control” value is given as 18% and the “inhibition of human RNase H2 expression” value is “at least 50%”. In the data set on human RNase H2 [2], the “% Inhib” value was found to be 81.2%.

Take “AGCTGAACCGGACAAACTGG (antisense eA*eG*e[5mC]*eT*eG*eA*dA*d[5mC]*d[5mC]*dG*dG*dA*d[5mC]*dA*eA*eA*e[5mC]*eT*eG*eG) [ISIS 21957, 2′-O-methoxyethyl gapmer, 8-nucleotide deoxy gap, phosphorothioate backbone, targeted to human RNase H2]”: in the data set on human RNase H2 [1], the “% inhibition” value was determined as 68%, the “% of control” value came out at 32% and the “inhibition of human RNase H2 expression” value is given as “at least 50%”. In addition, the “% Inhib” value in the data set on human RNase H2 [2] is 68.1%.

Take “CAAAAGGAAGTAGCTGGACC (antisense e[5mC]*eA*eA*eA*eA*eG*dG*dA*dA*dG*dT*dA*dG*d[5mC]*eT*eG*eG*eA*e[5mC]*e[5mC]) [ISIS 21962, 2′-O-methoxyethyl gapmer, 8-nucleotide deoxy gap, phosphorothioate backbone, targeted to human RNase H2]”: in the data set on human RNase H2 [1], the “% inhibition” value was 37% and the “% of control” value was 63%. For the same sequence, in the data set on human RNase H2 [2], the “% Inhib” value is 36.0%.

As to “CACAGGCGAACTCAGGCGAC (all C 5-methyl, all phosphorothioate, sugars by position not given here; further chemistry not fully specified) [ISIS 21947, 2′-O-methoxyethyl gapmer, 8-nucleotide deoxy gap, phosphorothioate backbone, targeted to human RNase H2]”, in the data set with human RNase H2 [1], the “% inhibition” value is reported as 63%, the “% of control” value stood at 37% and the “inhibition of human RNase H2 expression” value is listed as “at least 50%”.

For the sequence “CAGTTTCTCCACGAATTGCC (antisense e[5mC]*eA*eG*eT*eT*eT*d[5mC]*dT*d[5mC]*d[5mC]*dA*d[5mC]*dG*dA*eA*eT*eT*eG*e[5mC]*e[5mC]) [ISIS 21955, 2′-O-methoxyethyl gapmer, 8-nucleotide deoxy gap, phosphorothioate backbone, targeted to human RNase H2]”, in the data set on human RNase H2 [1], the “% inhibition” value was 33% and the “% of control” value was 67%. In addition, the “% Inhib” value with human RNase H2 [2] is recorded as 33.3%.

For the sequence “CCACCTTGGCACAGATGCTG (all C 5-methyl, all phosphorothioate, sugars by position not given here; further chemistry not fully specified) [ISIS 21954, 2′-O-methoxyethyl gapmer, 8-nucleotide deoxy gap, phosphorothioate backbone, targeted to human RNase H2]”, in the data set with human RNase H2 [1], the “% inhibition” value is given as 77%, the “% of control” value is on record as 23% and the “inhibition of human RNase H2 expression” value is “at least 50%”.

On to CCAGUUUGUCCGGUUCAGCUG [Si 21957], for which the “% Inhib” value with human RNase H2 [2] was determined as 42.4%.

As for “CCCAGCCGACAAAGTCCGTG (all C 5-methyl, all phosphorothioate, sugars by position not given here; further chemistry not fully specified) [ISIS 21950, 2′-O-methoxyethyl gapmer, 8-nucleotide deoxy gap, phosphorothioate backbone, targeted to human RNase H2]”, in the data set on human RNase H2 [1], the “% inhibition” value worked out at 68%, the “% of control” value was determined as 32% and the “inhibition of human RNase H2 expression” value was “at least 50%”.

Take “CCCGCTCGCTCTCCAATAGG (all C 5-methyl, all phosphorothioate, sugars by position not given here; further chemistry not fully specified) [ISIS 21949, 2′-O-methoxyethyl gapmer, 8-nucleotide deoxy gap, phosphorothioate backbone, targeted to human RNase H2]”: in the data set on human RNase H2 [1], the “% inhibition” value was determined as 82%, the “% of control” value was 18% and the “inhibition of human RNase H2 expression” value is listed as “at least 50%”.

For CCUGGAACGCGGCCUGGAGUC [Si 21959], in the data set on human RNase H2 [2], the “% Inhib” value came to 53.8%.

Consider “CGCCTCAGCCGCCACCACCA (all C 5-methyl, all phosphorothioate, sugars by position not given here; further chemistry not fully specified) [ISIS 21946, 2′-O-methoxyethyl gapmer, 8-nucleotide deoxy gap, phosphorothioate backbone, targeted to human RNase H2]”, for which, in the data set on human RNase H2 [1], the “% inhibition” value amounted to 50%, the “% of control” value is on record as 50% and the “inhibition of human RNase H2 expression” value was “at least 50%”.

With “CGCGCCTGGTATGTCTCTGG (all C 5-methyl, all phosphorothioate, sugars by position not given here; further chemistry not fully specified) [ISIS 21952, 2′-O-methoxyethyl gapmer, 8-nucleotide deoxy gap, phosphorothioate backbone, targeted to human RNase H2]”, in the data set with human RNase H2 [1], the “% inhibition” value was 89%, the “% of control” value turned out to be 11% and the “inhibition of human RNase H2 expression” value was “at least 50%”. For the same sequence, the reduction of expression entry in the data set with human RNase H2 [1] (200 nM) is “approximately 70%”. For the same sequence, the reduction of expression in the data set with human RNase H2 [1] (lowest dose tested 50 nM) was determined as 60%.

Consider “CGGTGTCCACGAATACCTGG (all C 5-methyl, all phosphorothioate, sugars by position not given here; further chemistry not fully specified) [ISIS 21951, 2′-O-methoxyethyl gapmer, 8-nucleotide deoxy gap, phosphorothioate backbone, targeted to human RNase H2]”, for which, in the data set with human RNase H2 [1], the “% inhibition” value is recorded as 74%, the “% of control” value turned out to be 26% and the “inhibition of human RNase H2 expression” value is “at least 50%”.

Consider GAAGCAAGGUGGGAGUGUGCU [Si 21961], for which, in the data set on human RNase H2 [2], the “% Inhib” value amounted to 15.2%.

Take GACCAUCCUGGAGAAAGAGGC [Si 21958]: the “% Inhib” value in the data set with human RNase H2 [2] is reported as 45.8%.

Consider “GGACAATAACAGATGGCGTA (eG*eG*eA*e[5mC]*eA*eA*dT*dA*dA*d[5mC]*dA*dG*dA*dT*eG*eG*e[5mC]*eG*eT*eA) [ISIS 21948]”, for which, in the data set with human RNase H2 [1], the “% inhibition” value is listed as 62%, the “% of control” value is 38% and the “inhibition of human RNase H2 expression” value is listed as “at least 50%”.

Regarding GGCAAUUCGUGGAGAAACUGC [Si 21955], in the data set with human RNase H2 [2], the “% Inhib” value was found to be 19.2%.

“GGTAGAGGGCATCTGCTTTG (eG*eG*eT*eA*eG*eA*dG*dG*dG*d[5mC]*dA*dT*d[5mC]*dT*eG*e[5mC]*eT*eT*eT*eG) [ISIS 21953]”: in the data set with human RNase H2 [1], the “% inhibition” value amounted to 59%, the “% of control” value is recorded as 41% and the “inhibition of human RNase H2 expression” value was “at least 50%”.

Regarding GGUCCAGCUACUUCCUUUUGG [Si 21962], the “% Inhib” value in the data set on human RNase H2 [2] is recorded as 0%.

Turning to UAAGGAGAACCACACGUAGGG [Si 21960], the “% Inhib” value in the data set on human RNase H2 [2] is listed as 9.9%.

The values are drawn from US20050164234A1, “Methods of using mammalian RNase H and compositions thereof” (priority 1997, published 2005).
